According to US20060247156A1, “Use of neuropeptides for ligament, cartilage, and bone healing” (priority 2004, published 2006):

Columns and labels:
MCL = MCL organ culture with guanethidine, mechanical testing; conditions: organ culture 10 days with guanethidine in media
Procedure: Bilateral MCLs (n=6) including intact femoral and tibial segments were aseptically harvested from untreated rats.
During and after harvest, tissues were rinsed in sterile phosphate buffered saline (PBS) containing penicillin (100 U/mL), streptomycin (100 μg/mL), and fungizone (0.25 μg/mL). Bone blocks were trimmed in order to minimize the amount of bone marrow, which may alter the culture environment. Tissues were then cultured in Dulbecco's Modified Eagle's Medium (DMEM) supplemented with 10% fetal bovine serum, nonessential amino acids (0.1 mM), L-gutamine (4 mM), penicillin (100 U/mL), streptomycin (100 μg/mL), and fungizone (0.25 μg/mL). […] The cultures were maintained in an incubator at 37° C. and 5% CO2. Media were changed every 48 hours at which time tissues were rinsed with sterile PBS to reduce drug carryover into the fresh media containing the treatment drug or equivalent volume of carrier. Organ culture was maintained for 10 days after which time the MCLs were tested mechanically in the same manner as the in vivo treatment group (described below).

intact MCL = conditions: guanethidine 40 mg/kg/day, 10 days
Procedure: Ligament thickness and width was measured optically, and MCL area was estimated with elliptical geometry. […] For strain measurements, optical markers were placed onto the ligament tissue near the insertion sites. A small preload of 0.1N was applied to the ligaments in order to obtain a uniform starting point. The ligaments were then preconditioned to 1% strain for 10 cycles.
The mechanical properties that were examined in this study were maximum force, ultimate stress, strain at failure, elastic modulus, and area.

[1] = tested on: sympathetic nervous system; conditions: rat, in vivo
Procedure: For all groups, anesthesia (isofluorane 0.5-3%) was initiated in an induction chamber and maintained with a facemask. […] Both groups were survived for 10 days following implantation of the pump at which time the animals were euthanized with intraperitoneal injection of pentobarbitone. Throughout the study only one ligament per animal was used for a particular experimental test protocol (described below).
Statistical analysis was performed using an unpaired t-test (alpha=0.05) to compare differences between the control and treatment groups.

Question: What does the source list for `N=C(N)NCCN1CCCCCCC1` [guanethidine]?
Answer: ultimate stress (MCL): 70.29±19.15 MPa; mean ultimate tensile force (intact MCL): not significantly decreased; strain at failure (intact MCL): 8.1±0.4%; wet weight (intact MCL; tissue hydration): 6.8 ± 0.7 g; abnormalities in movement, body weight, or behavior [1]: No abnormalities
